Source: US20210363545A1, “GENETIC SELECTION MARKERS BASED ON ENZYMATIC ACTIVITIES OF THE PYRIMIDINE SALVAGE PATHWAY” (priority 2018, published 2021)
≈ marks a conversion by molar mass, not a printed value. Like-named read-outs stand apart in the source and are kept apart here.

What was measured:
[1] = tested on: A. fumigatus Δuprt; assay: plate growth assay based susceptibility testing on solid AMM; type: cell-based, Aspergillus fumigatus
Procedure: Furthermore, 5-FU supplementation inhibits ΔfcyB (see FIG. 4). Inactivation of uprt allows growth of A. fumigatus on AMM supplemented with 100 μg/ml 5FC or 5FU at pH7 (see FIG. 4). At concentrations 10-500 μg/ml 5FC or 5FU, independent of the pH (200 μg/ml 5FC as well as 5FU were also tested and the Δuprt strains grow).
(§1) Plate growth assay based susceptibility testing of A. fumigatus and P. chrysogenum was carried out using solid AMM, for F. oxysporum solid PDA was employed. Low pH medium contained 100 mM citrate buffer (pH5), neutral pH medium 100 mM MOPS buffer (pH7). For strains carrying PxylP tunable reporter genes (sGFP, mKate2PER, sGFPMIT, lacZ), 0.5% xylose was supplemented to the medium to induce gene expression.
(§2) Coding sequences of fcyA and uprt were disrupted in wt (A1160P+) using hygromycin B and zeocin resistance cassettes, respectively. Therefore, deletion constructs comprising approximately 1 kb of 5′ and 3′ NTR linked to the central antibiotic resistance cassette were generated using fusion PCR as previously described (Fraczek, et al., The Journal of antimicrobial chemotherapy 68, 1486-1496 (2013)). Correct integration of constructs was confirmed by Southern analysis (see FIG. 14).
(§3) Among other fungal species, A. fumigatus is susceptible to 5FC (Te Dorsthorst et al., Antimicrob Agents Chemother 48, 3147-3150 (2004); Te Dorsthorst et al., Antimicrobial agents and chemotherapy 49, 3341-3346 (2005)) and is therefore anticipated to harbor genes encoding CD and UPRT in addition to 5FC uptake. […] To analyze their role in 5FC as well as 5FU activity, fcyA and uprt was inactivated in the A. fumigatus strain A1160P+ (Fraczek, et al., The Journal of antimicrobial chemotherapy 68, 1486-1496 (2013)), termed wt here, using hygromycin and phleomycine resistance based deletion cassettes. Due to the interdependency of 5FC activity and environmental pH (Gsaller et al., Antimicrob Agents Chemother 62 (2018); Te Dorsthorst et al., Antimicrob Agents Chemother 48, 3147-3150 (2004)) the contribution of both enzymes as well as FcyB to 5FC and 5FU activity at both pH5 and pH7 was investigated.

[2] = tested on: P. pastoris; assay: broth microdilution susceptibility testing according to EUCAST; type: cell-based, Komagataella phaffii alias Pichia pastoris; conditions: Komagataella pastoris
From the text: (§4) To identify encoded A. fumigatus FcyB, FcyA, Uprt, Uk and CntA activities in further fungal species, it was searched for A. fumigatus orthologs in biotechnology-relevant species (Aspergillus niger, Aspergillus oryzae, P. chrysogenum, Komagataella phaffii alias Pichia pastoris, S. cerevisiae, Trichoderma reesei) and in virulence-relevant species (Candida albicans, Cryptococcus neoformans, F. oxysporum). Orthologs to A. fumigatus proteins with an overall identity 40% were considered as putative orthologs if activities could be confirmed by susceptibility testing following a broth microdilution based method according to EUCAST (see Table 10).

[3] = tested on: P. chrysogenum; assay: as above; type: cell-based, Penicillium chrysogenum; conditions: Penicillium chrysogenum
From the text: as §4

[4] = tested on: A. fumigatus; assay: as above; type: cell-based, Aspergillus fumigatus; conditions: Aspergillus fumigatus
From the text: as §4

[5] = tested on: F. oxysporum; assay: as above; type: cell-based, Fusarium oxysporum; conditions: Fusarium oxysporum
From the text: as §4

[6] = tested on: T. reesei; assay: as above; type: cell-based, Trichoderma reesei; conditions: Trichoderma reesei
From the text: as §4

[7] = tested on: A. niger; assay: as above; type: cell-based, Aspergillus niger; conditions: Aspergillus niger
From the text: as §4

[8] = tested on: S. cersvisiae; assay: as above; type: cell-based, S. cerevisiae; conditions: Saccharomyces cerevisiae
From the text: as §4

[9] = tested on: C. albicans; assay: as above; type: cell-based, Candida albicans; conditions: Candida albicans
From the text: as §4

[10] = tested on: A. oryzae; assay: as above; type: cell-based, Aspergillus oryzae; conditions: Aspergillus oryzae
From the text: as §4

[11] = tested on: A. fumigatus ΔfcyA; assay: plate growth assay based susceptibility testing on solid AMM; type: cell-based, Aspergillus fumigatus; conditions: 100 μg/ml, pH5 as well as pH7
Procedure: as §1, §2
Among other fungal species, A. fumigatus is susceptible to 5FC (Te Dorsthorst et al., Antimicrob Agents Chemother 48, 3147-3150 (2004); Te Dorsthorst et al., Antimicrobial agents and chemotherapy 49, 3341-3346 (2005)) and is therefore anticipated to harbor genes encoding CD and UPRT in addition to 5FC uptake. […]

[12] = tested on: C. neoformans; assay: broth microdilution susceptibility testing according to EUCAST; type: cell-based, Cryptococcus neoformans; conditions: Cryptococcus neoformans
From the text: as §4

[13] = tested on: A. fumigatus ΔfcyB; assay: plate growth assay based susceptibility testing on solid AMM; type: cell-based, Aspergillus fumigatus
Procedure: (§5) pH 5 transcriptionally activates fcyB mediated uptake of 5FC. […] Inactivation of fcyB leads to resistance at 10 μg/ml 5FC at pH 5. Inactivation of fcyB leads to resistance on AMM (AMM Composition: 55.5 mM D-glucose, 20.0 mM ammonium tartrate, 7 mM KCl, 2.1 mM MgSO4 x 7H2O, 11.2 mM KH2PO4, 0.09 μM Na2B4O7 x 10H2O, 1 μM CuSO4 x 5H2O, 10 μM FeSO4 x 7H2O, 4.5 μM MnSO4 x 4H2O, 3.1 μM Na2MoO4 x 10H2O, […] ZnSO4 x 7H2O, 0.7% Agar; finally adjusted to pH 6.5 using NaOH before autoclaving) supplemented with 10 μg/ml 5FC and 100 mM citrate buffer pH 5.
as §1, §3

[14] = tested on: A. fumigatus wt (A1160P+); assay: as above; type: cell-based, Aspergillus fumigatus; conditions: for pH dependence of activity: A. fumigatus
Procedure: as §5, §1, §3

[15] = tested on: A. fumigatus with inactivated uk; assay: growth on AMM supplemented with 5-FUR; type: cell-based, Aspergillus fumigatus; conditions: AMM supplemented with 100 μg/ml
[16] = tested on: A. fumigatus with inactivated cntA; assay: growth on AMM supplemented with 5-FUR; type: cell-based, Aspergillus fumigatus; conditions: AMM supplemented with 100 μg/ml

SMILES | MIC ([2]; pH 5, read-out: MIC) [µg/mL] | MIC ([2]; pH 7, read-out: MIC) [µg/mL] | MIC ([3]; pH 5, read-out: MIC) [µg/mL] | MIC ([3]; pH 7, read-out: MIC) [µg/mL] | MIC ([4]; pH 5, read-out: MIC) [µg/mL] | MIC ([4]; pH 7, read-out: MIC) [µg/mL] | MIC ([5]; pH 5, read-out: MIC) [µg/mL] | MIC ([5]; pH 7, read-out: MIC) [µg/mL] | MIC ([6]; pH 5, read-out: MIC) [µg/mL] | MIC ([6]; pH 7, read-out: MIC) [µg/mL] | MIC ([7]; pH 5, read-out: MIC) [µg/mL] | MIC ([7]; pH 7, read-out: MIC) [µg/mL] | MIC ([8]; pH 5, read-out: MIC) [µg/mL] | MIC ([8]; pH 7, read-out: MIC) [µg/mL] | MIC ([9]; pH 5, read-out: MIC) [µg/mL] | MIC ([9]; pH 7, read-out: MIC) [µg/mL] | MIC ([10]; pH 5, read-out: MIC) [µg/mL] | MIC ([10]; pH 7, read-out: MIC) [µg/mL] | MIC ([12]; pH 5, read-out: MIC) [µg/mL] | MIC ([12]; pH 7, read-out: MIC) [µg/mL] | other results
O=c1[nH]cc(F)c(=O)[nH]1 [5FU, 5-fluorouracil] | 0.39 (≈ 3 µM) | > 400 | 3.12 (≈ 24 µM) | 3.12 (≈ 24 µM) | 50 (≈ 384 µM) | > 400 | 400 (≈ 3080 µM) | > 400 | 100 (≈ 769 µM) | 0.39 (≈ 3 µM) | 50 (≈ 384 µM) | 0.39 (≈ 3 µM) | 0.8 (≈ 6.15 µM) | 100 (≈ 769 µM) | 50 (≈ 384 µM) | 0.39 (≈ 3 µM) | 200 (≈ 1540 µM) | 12.5 (≈ 96.1 µM) | 6.25 (≈ 48 µM) | 12.5 (≈ 96.1 µM) | resistance of Δuprt ([1]; 100 μg/ml, pH5 as well as pH7): high resistance; growth of Δuprt strains ([1]; 200 μg/ml): grow; growth after inactivation of uprt ([1]; AMM supplemented with 100 μg/ml, pH7): allows growth; growth of ΔfcyA [11]: blocked growth; growth of ΔfcyB ([13]; 100 μg/ml, pH5 as well as pH7): blocked growth; effect of supplementation on ΔfcyB ([13]; solid Aspergillus minimal medium, FIG. 4): inhibits; growth of wt ([14]; 100 μg/ml, pH5 as well as pH7): blocked growth; pH dependence of activity [14]: pH independent; concentrations that fully inhibit A. fumigatus growth ([14]; typically, AMM): > 100 µg/mL
O=c1[nH]c(=O)n([C@@H]2O[C@H](CO)[C@@H](O)[C@H]2O)cc1F [5FUR, 5-fluorouridine] | 0.39 (≈ 1.49 µM) | > 400 | 3.12 (≈ 11.9 µM) | 3.12 (≈ 11.9 µM) | 6.25 (≈ 23.8 µM) | > 400 | > 400 | > 400 | 0.39 (≈ 1.49 µM) | 0.39 (≈ 1.49 µM) | 0.8 (≈ 3.05 µM) | 0.39 (≈ 1.49 µM) | 6.25 (≈ 23.8 µM) | 25 (≈ 95.3 µM) | 0.39 (≈ 1.49 µM) | 0.39 (≈ 1.49 µM) | 6.25 (≈ 23.8 µM) | 12.5 (≈ 47.7 µM) | 3.12 (≈ 11.9 µM) | 12.5 (≈ 47.7 µM) | resistance after inactivation of uk [15]: increases resistance; resistance after inactivation of cntA [16]: significantly increases resistance; pH dependence of activity [14]: pH independent; concentrations that significantly inhibit A. fumigatus growth ([14]; AMM): > 100 µg/mL
